# From US12331044B2, “Inhibitors of histone deacetylase useful for the treatment or prevention of HIV infection” (Merck Sharp & Dohme LLC, priority 2018, dated 2025)
# Where two headings read alike, the source gives them in different places.
# Assays:
# human HDAC2 = human HDAC2 (Homo sapiens (Human), UniProt Q92769); experiment: HDAC2 inhibition assay (modified FLUOR DE LYS, 384-well); assay type: biochemical; details: […] enzyme, 40 μM substrate BML-KI104, 3 h pre-incubation; read-out: HDAC2 IC50
# human HDAC8 = human HDAC8 (Homo sapiens (Human), UniProt Q9BY41); experiment: HDAC8 inhibition assay (modified FLUOR DE LYS, 384-well); assay type: biochemical; details: […] enzyme, 200 μM substrate BML-KI178, 3 h pre-incubation; read-out: HDAC8 IC50
# Experimental: (§1) The histone deacetylase activities of HDAC1, HDAC2, HDAC3, HDAC6, and HDAC8 were measured in modified FLUOR DE LYS assays in 384-well format. In this assay, HDAC enzymes are initially incubated with an F-acetyl (or -trifluoroacetyl)-L-lysine-containing substrate with a C-terminal amide having aminomethylcoumarin as the amine component. HDACs cleave the F-acetyl group, rendering the resulting product susceptible to AMC cleavage by trypsin. The released AMC is then detected by its fluorescence. […] All steps were performed at room temperature (23° C.). The assay was performed by pre-incubating serial dilutions of test compounds with the target HDAC prior to initiation with substrate. […] Final conditions used for each assay were: 1. […] The reactions were stopped and developed by addition of 30 ul of HDAC developer solution containing a saturating level of HDAC inhibitor as follows: 1. […] For data analysis, background subtracted product (fluorescence) vs. time data for each inhibitor concentration was fitted using a 4-parameter fit.
# human HDAC1 = human HDAC1 (Homo sapiens (Human), UniProt Q13547)
# [1] = biological target: human HDAC3/SMRT heterodimer (Homo sapiens (Human), UniProt O15379)
# HDAC6 = HDAC6 (Homo sapiens (Human), UniProt Q9UBN7)
# Experimental: as §1
# KARN cells (Jurkat 2C4) = experiment: cells; details: Homo sapiens
# [2] = read-out: Karn EC50 nM 0.1% NHS, 0.1% normal human serum, luciferase induction, 2 μM SAHA = 100%
# [3] = read-out: Karn EC50 nM 5% NHS, 5% normal human serum, luciferase induction, 2 μM SAHA = 100%
# Sequence of human HDAC1 (Q13547 whole entry): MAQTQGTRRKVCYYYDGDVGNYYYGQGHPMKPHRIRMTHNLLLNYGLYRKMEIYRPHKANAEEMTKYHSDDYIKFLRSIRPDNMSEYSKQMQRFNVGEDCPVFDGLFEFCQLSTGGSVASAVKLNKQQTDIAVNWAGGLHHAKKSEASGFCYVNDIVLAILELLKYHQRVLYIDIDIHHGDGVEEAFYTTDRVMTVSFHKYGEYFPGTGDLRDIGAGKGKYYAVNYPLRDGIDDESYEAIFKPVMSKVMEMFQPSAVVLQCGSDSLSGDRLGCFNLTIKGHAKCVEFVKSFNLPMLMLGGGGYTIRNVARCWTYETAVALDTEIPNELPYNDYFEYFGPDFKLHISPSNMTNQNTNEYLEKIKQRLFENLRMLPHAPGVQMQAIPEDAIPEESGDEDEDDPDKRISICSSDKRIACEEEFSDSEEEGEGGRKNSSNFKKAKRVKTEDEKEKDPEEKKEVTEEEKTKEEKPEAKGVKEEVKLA
# Sequence of human HDAC3/SMRT heterodimer (O15379 whole entry): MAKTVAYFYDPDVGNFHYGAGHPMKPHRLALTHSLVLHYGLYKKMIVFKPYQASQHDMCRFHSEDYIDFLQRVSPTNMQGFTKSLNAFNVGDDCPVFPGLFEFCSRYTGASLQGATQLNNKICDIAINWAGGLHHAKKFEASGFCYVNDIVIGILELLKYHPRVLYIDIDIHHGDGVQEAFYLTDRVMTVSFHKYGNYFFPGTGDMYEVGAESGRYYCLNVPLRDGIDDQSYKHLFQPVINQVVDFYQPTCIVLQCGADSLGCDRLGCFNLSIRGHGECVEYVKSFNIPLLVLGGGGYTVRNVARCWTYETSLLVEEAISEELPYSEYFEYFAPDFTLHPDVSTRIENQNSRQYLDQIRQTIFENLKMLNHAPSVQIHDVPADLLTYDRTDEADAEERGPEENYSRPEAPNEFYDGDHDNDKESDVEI
# Sequence of human HDAC3/SMRT heterodimer (Q9Y618 1-899 partner): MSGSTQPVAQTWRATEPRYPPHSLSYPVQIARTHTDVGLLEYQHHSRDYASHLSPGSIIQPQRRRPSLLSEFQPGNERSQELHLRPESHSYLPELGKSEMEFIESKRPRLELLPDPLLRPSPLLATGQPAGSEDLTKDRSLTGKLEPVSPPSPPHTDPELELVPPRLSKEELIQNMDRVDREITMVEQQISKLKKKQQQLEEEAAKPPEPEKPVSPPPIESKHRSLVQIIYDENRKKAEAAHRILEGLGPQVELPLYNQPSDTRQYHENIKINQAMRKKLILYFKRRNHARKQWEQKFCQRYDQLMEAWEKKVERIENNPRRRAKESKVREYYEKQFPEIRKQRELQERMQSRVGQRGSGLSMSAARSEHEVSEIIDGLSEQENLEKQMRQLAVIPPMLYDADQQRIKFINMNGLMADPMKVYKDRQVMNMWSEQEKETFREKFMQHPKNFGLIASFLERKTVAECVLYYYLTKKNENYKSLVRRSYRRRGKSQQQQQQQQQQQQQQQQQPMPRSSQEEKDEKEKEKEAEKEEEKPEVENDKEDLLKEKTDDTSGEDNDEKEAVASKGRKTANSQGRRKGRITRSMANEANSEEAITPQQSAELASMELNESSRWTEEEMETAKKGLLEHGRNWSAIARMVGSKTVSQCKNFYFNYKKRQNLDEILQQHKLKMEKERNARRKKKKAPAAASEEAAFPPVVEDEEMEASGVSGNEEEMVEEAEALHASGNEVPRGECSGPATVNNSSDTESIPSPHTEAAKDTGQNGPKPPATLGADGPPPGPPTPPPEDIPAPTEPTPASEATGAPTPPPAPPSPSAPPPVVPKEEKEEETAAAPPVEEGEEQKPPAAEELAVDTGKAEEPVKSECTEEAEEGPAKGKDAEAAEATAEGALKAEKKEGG
# Sequence of human HDAC8 (Q9BY41 whole entry): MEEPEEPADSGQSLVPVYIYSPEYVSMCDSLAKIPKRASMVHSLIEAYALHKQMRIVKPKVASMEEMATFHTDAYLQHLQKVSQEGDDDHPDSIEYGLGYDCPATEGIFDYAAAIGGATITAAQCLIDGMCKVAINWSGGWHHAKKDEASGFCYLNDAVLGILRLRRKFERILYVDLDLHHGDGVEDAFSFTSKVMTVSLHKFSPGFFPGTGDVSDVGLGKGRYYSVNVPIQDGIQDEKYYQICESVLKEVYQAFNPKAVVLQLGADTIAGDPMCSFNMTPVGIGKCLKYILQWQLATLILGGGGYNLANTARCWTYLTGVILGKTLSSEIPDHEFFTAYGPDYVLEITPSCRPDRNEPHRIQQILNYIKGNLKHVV
# Sequence of human HDAC2 (Q92769 whole entry): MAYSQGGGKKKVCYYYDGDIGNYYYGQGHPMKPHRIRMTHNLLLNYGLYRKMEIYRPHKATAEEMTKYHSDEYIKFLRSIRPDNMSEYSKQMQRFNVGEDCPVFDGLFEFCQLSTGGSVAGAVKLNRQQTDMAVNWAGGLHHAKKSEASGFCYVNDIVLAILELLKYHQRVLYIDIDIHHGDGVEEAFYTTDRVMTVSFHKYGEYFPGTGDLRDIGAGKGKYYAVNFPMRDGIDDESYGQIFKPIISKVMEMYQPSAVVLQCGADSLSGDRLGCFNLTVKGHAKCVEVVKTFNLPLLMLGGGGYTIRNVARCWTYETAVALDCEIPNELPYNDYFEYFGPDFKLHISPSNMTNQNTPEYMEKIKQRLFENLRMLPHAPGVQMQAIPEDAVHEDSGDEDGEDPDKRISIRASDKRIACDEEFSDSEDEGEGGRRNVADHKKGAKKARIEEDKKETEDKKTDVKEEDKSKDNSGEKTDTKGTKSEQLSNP
# Sequence of HDAC6 (Q9UBN7 whole entry): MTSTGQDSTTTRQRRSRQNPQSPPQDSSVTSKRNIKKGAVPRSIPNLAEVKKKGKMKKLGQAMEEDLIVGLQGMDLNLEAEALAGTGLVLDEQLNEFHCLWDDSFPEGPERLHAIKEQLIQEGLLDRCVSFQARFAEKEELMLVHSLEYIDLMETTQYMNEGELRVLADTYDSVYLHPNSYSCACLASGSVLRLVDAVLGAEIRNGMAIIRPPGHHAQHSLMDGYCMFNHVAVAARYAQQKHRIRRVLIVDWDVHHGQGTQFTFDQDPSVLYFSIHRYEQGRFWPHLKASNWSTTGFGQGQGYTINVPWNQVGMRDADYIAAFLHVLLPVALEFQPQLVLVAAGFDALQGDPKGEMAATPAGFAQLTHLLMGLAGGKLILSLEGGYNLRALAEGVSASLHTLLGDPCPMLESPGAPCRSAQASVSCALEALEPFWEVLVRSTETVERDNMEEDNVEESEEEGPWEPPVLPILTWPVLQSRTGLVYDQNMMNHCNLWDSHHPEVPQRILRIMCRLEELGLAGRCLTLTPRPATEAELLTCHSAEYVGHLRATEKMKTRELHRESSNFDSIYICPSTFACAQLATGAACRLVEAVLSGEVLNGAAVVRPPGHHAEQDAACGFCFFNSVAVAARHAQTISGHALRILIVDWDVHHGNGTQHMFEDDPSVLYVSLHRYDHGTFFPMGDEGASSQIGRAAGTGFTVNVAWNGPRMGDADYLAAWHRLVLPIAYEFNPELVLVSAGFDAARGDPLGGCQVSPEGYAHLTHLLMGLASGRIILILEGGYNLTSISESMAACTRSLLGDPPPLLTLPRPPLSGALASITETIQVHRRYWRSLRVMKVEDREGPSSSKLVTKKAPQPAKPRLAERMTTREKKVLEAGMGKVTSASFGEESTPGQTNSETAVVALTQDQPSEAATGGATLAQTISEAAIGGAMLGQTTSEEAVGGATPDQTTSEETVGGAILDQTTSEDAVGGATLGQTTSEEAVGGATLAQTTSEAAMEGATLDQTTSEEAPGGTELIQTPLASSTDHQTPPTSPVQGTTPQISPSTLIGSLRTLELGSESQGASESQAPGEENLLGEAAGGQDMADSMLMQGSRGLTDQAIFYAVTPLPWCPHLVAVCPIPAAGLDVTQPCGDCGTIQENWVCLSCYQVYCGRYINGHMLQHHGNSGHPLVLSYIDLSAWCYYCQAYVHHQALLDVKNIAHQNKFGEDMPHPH
Compound,IC50 (human HDAC2) [nM],IC50 (human HDAC8) [nM],IC50 (human HDAC1) [nM],IC50 [1] [nM],IC50 (HDAC6) [nM],EC50 (KARN cells (Jurkat 2C4); [2]) [nM],EC50 (KARN cells (Jurkat 2C4); [3]) [nM]
CN(C)C1(C(=O)N[C@@H](CCCCCC(=O)c2ccon2)c2ncc(-c3ccccc3F)[nH]2)CCC1 [Example 63],2.1,3.8,0.54,0.46,> 900,11,32
CN(C)C1(C(=O)N[C@@H](CCCCCC(=O)c2ccon2)c2ncc(-c3ccccc3F)[nH]2)CCCC1 [Example 64],2.1,3.5,0.58,0.64,> 900,16,28
"CN[C@@H](CCCCCC(=O)c1ncco1)c1ncc(-c2ccc3nc(C)ccc3c2)[nH]1 [Example 75, (S)-7-(methylamino)-7-(5-(2-methylquinolin-6-yl)-1H-imidazol-2-yl)-1-(oxazol-2-yl)heptan-1-one]",7,3400,2.4,3.9,26000,300,220
"COc1cc2nc(C)ccc2cc1-c1cnc([C@H](CCCCCC(=O)c2ncco2)NCc2ccccc2)[nH]1 [Example 82, (S)-7-(benzylamino)-7-(5-(7-methoxy-2-methylquinolin-6-yl)-1H-imidazol-2-yl)-1-(oxazol-2-yl)heptan-1-one]",7.8,1800,3.1,2.7,1500,180,320
COc1cc2nc(C)ccc2cc1-c1cnc([C@H](CCCCCC(=O)c2ccon2)NC(=O)CN(C)C)[nH]1 [Example 91],1.9,14,1.5,1.5,11000,17,22
COc1cc2c(ccc(=O)n2C)cc1-c1cnc([C@H](CCCCCC(=O)c2ncco2)NC(=O)CN(C)C)[nH]1 [Example 92],6.2,57,0.92,1.1,4500,32,64
COc1cc2c(ccc(=O)n2C)cc1-c1cnc([C@H](CCCCCC(=O)c2ccon2)NC(=O)CN(C)C)[nH]1 [Example 93],2.2,3.5,0.37,0.46,4500,6.6,14
"CCn1ccc2cc(-c3cnc([C@H](CCCCCC(=O)c4ncco4)NC(=O)CN(C)C)[nH]3)c(OC)cc2c1=O [Example 96, (S)-2-(dimethylamino)-N-(1-(5-(2-ethyl-7-methoxy-1-oxo-1,2-dihydroisoquinolin-6-yl)-1H-imidazol-2-yl)-7-(oxazol-2-yl)-7-oxoheptyl)acetamide]",3.8,57,0.51,0.94,920,14,24
"COc1cc2c(ccc(=O)n2C)cc1-c1cnc([C@H](CCCCCC(=O)c2ccon2)NC(=O)C2CN(C)C2)[nH]1 [Example 102, (S)-N-(7-(isoxazol-3-yl)-1-(5-(7-methoxy-1-methyl-2-oxo-1,2-dihydroquinolin-6-yl)-1H-imidazol-2-yl)-7-oxoheptyl)-1-methylazetidine-3-carboxamide]",0.78,3.1,0.24,0.25,> 900,170,270
"COc1cc2nc(C)ccc2cc1-c1cnc([C@H](CCCCCC(=O)c2ccon2)NC(=O)C2CN(C)C2)[nH]1 [Example 103, (S)-N-(7-(isoxazol-3-yl)-1-(5-(7-methoxy-2-methylquinolin-6-yl)-1H-imidazol-2-yl)-7-oxoheptyl)-1-methylazetidine-3-carboxamide]",0.44,3,0.13,0.18,> 900,6,8.3
"CN1CCC2(CC1)C[C@@H]2C(=O)N[C@@H](CCCCCC(=O)c1ccon1)c1[nH]c(-c2ccccc2F)nc1Cl [Example 112, (S)-N-((S)-1-(4-chloro-2-(2-fluorophenyl)-1H-imidazol-5-yl)-7-(isoxazol-3-yl)-7-oxoheptyl)-6-methyl-6-azaspiro[2.5]octane-1-carboxamide]",0.25,23,0.083,0.035,4600,1.4,1.4
"COc1cc2nc(C)ccc2cc1-c1cnc([C@H](CCCCCC(=O)c2ncco2)NC(=O)[C@H]2CC23CCN(C)CC3)o1 [Example 113, (S)-N-((S)-1-(5-(7-methoxy-2-methylquinolin-6-yl)oxazol-2-yl)-7-(oxazol-2-yl)-7-oxoheptyl)-6-methyl-6-azaspiro[2.5]octane-1-carboxamide]",2.5,180,0.41,0.58,200,18,12
"COc1nc(C2CC2)ccc1-c1c[nH]c([C@H](CCCCCC(=O)c2ncco2)NC(=O)[C@H]2CC23CCN(C)CC3)n1 [Example 115, (S)-N-((S)-1-(4-(6-cyclopropyl-2-methoxypyridin-3-yl)-1H-imidazol-2-yl)-7-(oxazol-2-yl)-7-oxoheptyl)-6-methyl-6-azaspiro[2.5]octane-1-carboxamide]",3.9,51,0.66,0.84,300,37,58
"Cn1cc2cc(-n3ccc([C@@H](N)CCCCCC(=O)c4ncco4)n3)ccc2n1 [Example 128, (7S)-7-amino-7-[1-(2-methyl-2H-indazol-5-yl)-1H-pyrazol-3-yl]-1-(1,3-oxazol-2-yl)heptan-1-one]",55,4300,8,10,45000,1200,1500
"N[C@@H](CCCCCC(=O)c1ncco1)c1ncc(-c2cccc(C(F)(F)F)c2F)[nH]1 [Example 138, (7S)-7-amino-7-{5-[2-fluoro-3-(trifluoromethyl)phenyl]-1H-imidazol-2-yl}-1-(1,3-oxazol-2-yl)heptan-1-one]",37,250,4.3,3.9,> 900,2200,3400
"N[C@@H](CCCCCC(=O)c1ncco1)c1ncc(-c2ccc(C(F)(F)F)cc2F)[nH]1 [Example 139, (7S)-7-amino-7-{5-[2-fluoro-4-(trifluoromethyl)phenyl]-1H-imidazol-2-yl}-1-(1,3-oxazol-2-yl)heptan-1-one]",28,> 900,5.6,5.9,> 900,1700,2700
"COc1ccc(-c2cnc([C@@H](N)CCCCCC(=O)c3ncco3)[nH]2)c(F)c1 [Example 140, (7S)-7-amino-7-[5-(2-fluoro-4-methoxyphenyl)-1H-imidazol-2-yl]-1-(1,3-oxazol-2-yl)heptan-1-one]",6,> 900,1,1.3,> 900,390,860
"CS(=O)(=O)c1ccc(-c2cnc([C@@H](N)CCCCCC(=O)c3ncco3)[nH]2)c(F)c1 [Example 143, (7S)-7-amino-7-{5-[2-fluoro-4-(methylsulfonyl)phenyl]-1H-imidazol-2-yl}-1-(1,3-oxazol-2-yl)heptan-1-one]",35,> 900,7.2,7.9,> 900,1200,1600
"COc1cc(O[C@H]2C[C@H](OC)C2)cc(-c2cnc([C@@H](N)CCCCCC(=O)c3ncco3)[nH]2)c1F [Example 144, (7S)-7-amino-7-(5-{2-fluoro-3-methoxy-5-[(trans-3-methoxycyclobutyl)oxy]phenyl}-1H-imidazol-2-yl)-1-(1,3-oxazol-2-yl)heptan-1-one]",39,210,7,6.4,> 900,650,870
"COc1nc2ccccc2cc1-c1cnc([C@H](CCCCCC(=O)c2ncco2)NC(=O)c2ccncn2)[nH]1 [Example 149, N-[(1S)-1-[5-(2-methoxyquinolin-3-yl)-1H-imidazol-2-yl]-7-(1,3-oxazol-2-yl)-7-oxoheptyl]pyrimidine-4-carboxamide]",6.6,140,1.7,1.5,21000,69,360
"COc1nc2ccccc2cc1-c1cnc([C@H](CCCCCC(=O)c2ncco2)NC(=O)Cn2cccc2)[nH]1 [Example 150, N-[(1S)-1-[5-(2-methoxyquinolin-3-yl)-1H-imidazol-2-yl]-7-(1,3-oxazol-2-yl)-7-oxoheptyl]-2-(1H-pyrrol-1-yl)acetamide]",8.8,120,2.1,1.5,2700,94,500
